Laboratory results from ChEMBL document CHEMBL5625237 (Eur J Med Chem, 2023).

Key:
[1] = molecular target: T1, Replicase polyprotein 1ab (Severe acute respiratory syndrome coronavirus 2, UniProt P0DTD1); experiment: (§1) Inhibition of recombinant full length his tagged C-terminal SARS-CoV 2 main protease (M1 to Q307 residues) expressed in Escherichia coli BL21 (DE3) cells using LGSAVLQ-Rh110-dP as peptide substrate preincubated for 1 hr followed by substrate addition and measured after 24 hrs by fluorescence based analysis
[2] = molecular target: Replicase polyprotein 1ab (Severe acute respiratory syndrome coronavirus 2) (UniProt P0DTD1); experiment: as §1, with “peptide substrate at 10 uM preincubated for” for “peptide substrate preincubated for”, “based analysis relative to control” for “based analysis”; settings: time 25.0 hrs
[3] = Cytotoxicity against human Calu-3 cells measured after 2 days by MTT assay; format: toxicity, cell-based; settings: time 2 day
[4] = Selectivity index, ratio of CC50 for human Calu-3 cells to EC50 for SARS CoV-2 (hCoV-19/Korea/KCDC06/2020) infected in human Calu-3 cells; format: toxicity, cell-based; settings: read-out: Ratio CC50/EC50
SARS-CoV-2 [5] = experiment: Antiviral activity against SARS CoV-2 (hCoV-19/Korea/KCDC06/2020) infected in human Calu-3 cells pre-infected with virus followed by compound addition and measured after 2 days post infection; format: functional, organism-based; settings: Severe acute respiratory syndrome coronavirus 2, hCoV-19/Korea/KCDC06/2020, Calu-3, 48 h
SARS-CoV-2 [6] = experiment: Antiviral activity against SARS-CoV-2 (nCoV-2019BetaCoV/Wuhan/WIV04/2019) infected in african green monkey Vero E6 cells preincubated with compound for 1 hr followed by viral infection for 2 hrs and measured after 24 hrs post infection by real time PCR analysis; format: functional, organism-based; settings: Severe acute respiratory syndrome coronavirus 2, nCoV-2019BetaCoV/Wuhan/WIV04/2019, Vero C1008
[7] = molecular target: T1, Replicase polyprotein 1ab; experiment: Inhibition of recombinant full length SARS-CoV-2 main protease expressed in Escherichia coli preincubated for 10 mins followed by substrate addition and measured every 30 secs for 10 mins
SARS-CoV-2 [8] = experiment: microbe, parasite or virus in culture; settings: Severe acute respiratory syndrome coronavirus 2, USA/NYU-VC-003/2020, A549-ACE2

Compound | IC50 [1] [µM] | further results
COc1ccc2c(c1)cc(C(=O)NCCCNC(=O)n1cc(F)c(=O)[nH]c1=O)n2CC(C)C | 1.4 | 
O=C(c1ccc2cc[nH]c2c1)N1CCC(CCCNC(=O)n2cc(F)c(=O)[nH]c2=O)CC1 | 3.1 | 
O=C(NCCCCCCc1ccccc1)n1cc(F)c(=O)[nH]c1=O | 3.8 | 
CCCCCCNC(=O)n1cc(Cl)c(=O)[nH]c1=O | 5.5 | 
O=C(NCCCCc1ccccc1)n1cc(F)c(=O)[nH]c1=O | 3.9 | 
CC(C)(C)OC(=O)N1CCC(CCCNC(=O)n2cc(F)c(=O)[nH]c2=O)CC1 | 3.4 | 
CCCCCCNC(=O)n1cc(C)c(=O)[nH]c1=O | 7.6 | 
O=C(NCCCC1CCNCC1)n1cc(F)c(=O)[nH]c1=O |  | inhibition [2]: 19%
CCCCCCNC(=O)n1cc(C(F)(F)F)c(=O)[nH]c1=O | 7.4 | 
Cc1ccc2c(c1)cc(C(=O)NCCCNC(=O)n1cc(F)c(=O)[nH]c1=O)n2CC(C)C | 1.2 | 
CC(C)C[C@H](CNC(=O)c1cc2ccccc2[nH]1)CNC(=O)n1cc(F)c(=O)[nH]c1=O | 4.4 | 
CC(C)Cn1c(C(=O)NCCCNC(=O)n2ccc(=O)[nH]c2=O)cc2cc(F)ccc21 | 0.57 | CC50 at 48 h [3]: > 100 µM
CCC(CC)COC(=O)[C@H](C)N[P@](=O)(OC[C@H]1O[C@@](C#N)(c2ccc3c(N)ncnn23)[C@H](O)[C@@H]1O)Oc1ccccc1 |  | CC50 at 48 h [3]: > 100 µM; selectivity ratio [4]: > 172; EC50 (SARS-CoV-2 [5]): 0.58 µM
CC(C)Cn1c(C(=O)NCCCNC(=O)n2cc(F)c(=O)[nH]c2=O)cc2cc(Cl)ccc21 | 0.35 | CC50 at 48 h [3]: > 100 µM; selectivity ratio [4]: > 5.5; EC50 (SARS-CoV-2 [5]): 18 µM
CC(C)(C)CC(=O)N1CCC(CCCNC(=O)n2cc(F)c(=O)[nH]c2=O)CC1 | 1.7 | EC50 (SARS-CoV-2 [6]): 0.53 µM; CC50 at 48 h [3]: 99 µM; selectivity ratio [4]: 8.3; IC50 [7]: 0.053 µM; EC50 (SARS-CoV-2 [5]): 12 µM
CC(C)Cn1c(C(=O)NCCCNC(=O)n2cc(F)c(=O)[nH]c2=O)cc2cc(F)ccc21 | 0.37 | CC50 at 48 h [3]: 98 µM; selectivity ratio [4]: 3.3; EC50 (SARS-CoV-2 [5]): 29 µM
CC(C)Cn1c(C(=O)NCCCNC(=O)n2ccc(=O)[nH]c2=O)cc2cc(Cl)ccc21 | 1.6 | CC50 at 48 h [3]: > 100 µM
CCCCCCNC(=O)n1cc(F)c(=O)[nH]c1=O [CARMOFUR] |  | CC50 at 48 h [3]: > 100 µM; EC50 (SARS-CoV-2 [5]): > 100 µM
CCCCCCNC(=O)n1ccc(=O)[nH]c1=O | 9.8 | 
CC(C)Cn1c(C(=O)NCCCNC(=O)n2cc(F)c(=O)[nH]c2=O)cc2ccccc21 | 0.97 | 

Compound | IC50 [1] [µM] | further results
CC(C)Cn1c(C(=O)NCCCNC(=O)n2cc(F)c(=O)[nH]c2=O)cc2cc(C(F)(F)F)ccc21 | 0.79 | 
O=C(NCCCNC(=O)n1cc(F)c(=O)[nH]c1=O)c1ccc2cc[nH]c2c1 | 2.4 | 
O=C(NCCCC1CCCCC1)n1cc(F)c(=O)[nH]c1=O | 3.3 | 
Cn1ccc2ccc(C(=O)NCCCNC(=O)n3cc(F)c(=O)[nH]c3=O)cc21 | 3.8 | 
O=C(NCCCCC1CCCCC1)n1cc(F)c(=O)[nH]c1=O |  | inhibition [2]: 31%
O=C(NCCC1CCCCC1)n1cc(F)c(=O)[nH]c1=O | 4.9 | 
CC(C)Cn1c(C(=O)NCCCNC(=O)n2cc(F)c(=O)[nH]c2=O)cc2cc(OC(F)(F)F)ccc21 | 2.5 | 
O=C(NCCCNC(=O)n1cc(F)c(=O)[nH]c1=O)c1cc2ccccc2[nH]1 | 2.6 | 
Cn1c(C(=O)NCCCNC(=O)n2cc(F)c(=O)[nH]c2=O)cc2ccccc21 | 1.5 | 
Cc1cn(C(=O)NCCCNC(=O)c2cc3cc(F)ccc3n2CC(C)C)c(=O)[nH]c1=O | 0.7 | CC50 at 48 h [3]: > 100 µM
CCCCCCNC(=O)n1cc(Br)c(=O)[nH]c1=O | 7.4 | 
O=C(NCCCc1ccccc1)n1cc(F)c(=O)[nH]c1=O |  | inhibition [2]: 27%
COc1cccc2[nH]c(C(=O)N[C@@H](CC(C)C)C(=O)N[C@@H](C[C@@H]3CCNC3=O)C(=O)CO)cc12 [PF-00835231] |  | EC50 (SARS-CoV-2 [8]): 0.221 µM
O=C(NCCCNC(=O)n1cc(F)c(=O)[nH]c1=O)c1cc2ccccc2n1Cc1ccccc1 | 5.1 | 
O=C(Cc1ccccc1)N1CCC(CCCNC(=O)n2cc(F)c(=O)[nH]c2=O)CC1 | 3.9 | 
CCn1c(C(=O)NCCCNC(=O)n2cc(F)c(=O)[nH]c2=O)cc2ccccc21 | 1.9 | 
Cc1cn(C(=O)NCCCNC(=O)c2cc3cc(Cl)ccc3n2CC(C)C)c(=O)[nH]c1=O | 1.3 | CC50 at 48 h [3]: > 100 µM
O=C(CC1CCCCC1)N1CCC(CCCNC(=O)n2cc(F)c(=O)[nH]c2=O)CC1 | 4.5 | EC50 (SARS-CoV-2 [6]): 0.72 µM; IC50 [7]: 0.04 µM
CCCCCCNC(=O)n1cc(CC)c(=O)[nH]c1=O | 6.2 | 
O=C(NCCC1CCCC1)n1cc(F)c(=O)[nH]c1=O | 4.6 | CC50 at 48 h [3]: > 100 µM; selectivity ratio [4]: > 2; EC50 (SARS-CoV-2 [5]): 49 µM
